Measurements: patent publication US10021877B2, “Substituted 5-hydroxy-2,3-diphenylpentanonitrile derivatives, processes for their preparation and their use as herbicides and/or plant growth regulators” (BAYER CROPSCIENCE AKTIENGESELLSCHAFT, priority 2013, dated 2018)

Test system: PHBPU=Pharbitis purpurea
Experiment: Biological tests (herbicidal action) against PHBPU
Type: in vivo
Conditions: application rate 320 g/ha
Excerpt: Seeds of monocotyledonous and dicotyledonous weed plants and crop plants were placed in wood-fibre pots in sandy loam and covered with soil. The compounds (I) according to the invention, formulated in the form of wettable powders (WP), were then applied as aqueous suspension or emulsion at a water application rate of 600 l/ha (converted) with the addition of 0.2% of wetting agent to the surface of the covering soil.
After the treatment, the pots were placed in a greenhouse and kept under good growth conditions for the test plants. After about 3 weeks, the effect was scored visually in comparison with untreated controls as percentages. For example, 100% activity=the plants have died, 50% herbicidal activity or damage=the plants have been reduced by 50% or the plant mass has been reduced by 50%, 0% activity=like control plants.
Seeds of monocotyledonous and dicotyledonous weeds and crop plants were placed in sandy loam in wood-fibre pots, covered with soil and cultivated in a greenhouse under good growth conditions. […]
What was determined was the respective herbicidal activity, in each case at the same point in time after application of the formulation in question. i.e. the damage to the respective harmful plant in %.

Row | SMILES | herbicidal activity against PHBPU
1 | CC(=O)OCCC(c1cc(F)ccc1F)C(C#N)c1ccc(F)c(Br)c1 (mixture of isomers) [Ibb52] | 100%
2 | N#C[C@@H](c1cccc(F)c1)[C@@H](CCO)c1ccc(Cl)cc1 [threo-1-Iba354] | 80%
